In PMC10056443, “Derivatives of Amaryllidaceae Alkaloid Ambelline as Selective Inhibitors of Hepatic Stage of Plasmodium berghei Infection In Vitro” (Pharmaceutics, 2023):
Like-named read-outs stand apart in the source and are kept apart here.

Legend:
Plasmodium = system: Plasmodium; design: method as in PMID 29243039; settings: tested previously, cited from earlier work
HepG2 cells = test: Cytotoxicity assessment in vitro (MTT assay); assay type: cell-based
Outline: (§1)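 Human HepG2 hepatocellular carcinoma cells (passage 20–25) were treated with compound at 10 μM in triplicate for 24 h at 37 °C, 5% CO2. Viability was then measured by MTT: 3 h incubation, formazan dissolved in DMSO, absorbance read at 570 nm.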

[1] = Cytotoxicity assessment in vitro (MTT assay); assay type: cell-based; settings: human
Outline: as §1

[2] = system: hepatic stage of P. berghei; test: In vitro activity against P. berghei hepatic stages (luciferase-expressing sporozoites in Huh-7 cells, bioluminescence); assay type: cell-based, Plasmodium berghei; settings: for IC50 / activity at 1 µM / activity at 10 µM: Plasmodium berghei; for activity against P. berghei hepatic stages: screening at 10 and 1 µM / IC50 determination; for activity at 1 µM / activity at 10 µM: DMSO = 100, read-out: INFECTION Ø screening
Outline: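 Huh-7 hepatoma cells pretreated with compounds 1 h, then infected with luciferase-expressing P. berghei sporozoites (1 × 10^4/well, 1:1 ratio) and incubated at 37 °C.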

[3] = system: resistant Dd2 P. falciparum strain; settings: cited from earlier work
[4] = system: chloroquine-sensitive 3D7 strain; design: method as in doi:10.21577/0103-5053.20190061; settings: cited from earlier work
[5] = system: multidrug-resistant K1 strain; design: method as in doi:10.21577/0103-5053.20190061; settings: cited from earlier work
Huh-7 cell line = test: Huh-7 cell confluency by alamarBlue assay during hepatic-stage test; assay type: cell-based; settings: human, 46 h, pH 7
Outline: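 Huh-7 human hepatoma cells pre-treated with compound in infection medium 1 h before luciferase-expressing P. berghei sporozoites were added (1:1, 1 × 10^4 per well), then incubated 46 h at 37 °C, 5% CO2. Confluency assessed indirectly by alamarBlue; IC50 from nonlinear-regression fit of normalized dose-response curves.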

[6] = system: P. falciparum NF54 ring-stage synchronized cultures; test: In vitro activity against P. falciparum blood stages (flow cytometry, SYBR green I); assay type: cell-based, Plasmodium falciparum; settings: Control = 7.76333, 48 h
[7] = Huh-7, mean, unit (Table 1: µM), read-out: Antiplasmodial activity - Ø IC50
[8] = Huh-7, replicate 1, unit (Table 1: µM), read-out: Antiplasmodial activity - IC50 determination, 1. measurement
[9] = Huh-7, replicate 2, unit (Table 1: µM), read-out: Antiplasmodial activity - IC50 determination, 2. measurement
[10] = Huh-7, replicate 3, unit (Table 1: µM), read-out: Antiplasmodial activity - IC50 determination, 3. measurement
[11] = hepatic stage, Huh-7 cells, parasite load 48 h post-infection, read-out: IC50 P. berghei

SMILES	CELL CONFLUENCY Ø screening (Huh-7 cell line; 1 µM)	CELL CONFLUENCY Ø screening (Huh-7 cell line; 10 µM)	1. screening of cytotoxic potential, HepG2 cell line (HepG2 cells; human, 24 h, 10 µM)	2. screening of cytotoxic potential, HepG2 cell line (HepG2 cells; human, 24 h, 10 µM)	3. screening of cytotoxic potential, HepG2 cell line (HepG2 cells; human, 24 h, 10 µM)	Ø screening, HepG2 (sheet Graphs) (HepG2 cells; human, 24 h, 10 µM)	viability at 24 h, 10 µM [1] [%]	activity at 1 µM ([2]; Huh-7, 48 h) [%]	activity at 10 µM ([2]; Huh-7, 48 h) [%]	IC50 [2, 11] [µM]	Ø screening, blood stage parasite load ([6]; at 10 nM)	Ø screening, blood stage parasite load ([6]; at 500 nM)	Ø screening, blood stage parasite load ([6]; at 100 nm)	further results
COC1C=CC23c4cc5c(cc4CN(CC2O)C3C1)OCO5 (stereo not shown) [compound 29, haemanthamine]	–	–	–	–	–	–	–	–	–	–	–	–	–	antiplasmodial effect (words) (Plasmodium): without notable activity; antiplasmodial effect (words) (Plasmodium; listed as haemanthamine): neither haemanthamine nor ambelline showed inhibition
COc1c2c(cc3c1OCO3)[C@]13C=C[C@H](OC)C[C@H]1N(C2)C[C@@H]3O [compound 28, ambelline]	–	–	–	–	–	–	–	–	–	–	–	–	–	Ø screening, HepG2 (sheet Graphs) (HepG2 cells; c = 10 μM, DMSO = 100, in %): 49.86; 1. screening of cytotoxic potential, HepG2 cell line (HepG2 cells; c = 10 μM, replicate 1, in %): 49.93; 2. screening of cytotoxic potential, HepG2 cell line (HepG2 cells; c = 10 μM, replicate 2, in %): 48.36; 3. screening of cytotoxic potential, HepG2 cell line (HepG2 cells; c = 10 μM, replicate 3, in %): 51.3; viability at 24 h, 10 µM ([1]; c = 10 µM, 24 h, MTT, read-out: HepG2 % of cell viability compared to non-treated control (100%)): 50 ± 1%; IC50 ([2]; Huh-7, 48 h, read-out: IC50 P. berghei): > 10 µM; activity against P. berghei hepatic stages [2]: neither haemanthamine nor ambelline showed inhibition; IC50 [3]: 7.3 ± 0.3 µM
O[C@H]1[C@H]2c3cc4c(cc3CN3CCC(=C[C@@H]1O)[C@H]23)OCO4 [compound 6, lycorine]	–	–	–	–	–	–	–	–	–	–	–	–	–	IC50 [4]: 2.5 µM; IC50 [5]: 3.1 µM
COc1c2c(cc3c1OCO3)[C@]13C=C[C@H](OC)C[C@H]1N(C2)C[C@H]3OC(=O)c1ccccc1 [28e, 11-O-Benzoylambelline]	94.15	86.56	98.77	99.24	87.15	95.05	95 ± 7	45.7	2.18	0.726 ± 0.126	7.597	7.383	7.907	IC50 [2, 7]: 0.726 µM; IC50 [2, 8]: 0.662 µM; IC50 [2, 9]: 0.646 µM; IC50 [2, 10]: 0.871 µM
COc1c2c(cc3c1OCO3)[C@]13C=C[C@H](OC)C[C@H]1[N@](C2)C[C@H]3OC(C)=O [28a, 11-O-Acetylambelline]	94.22	93.33	104.06	105.26	110.57	106.6	107 ± 3	79.5	64.4	> 10	7.817	11.5	10.27	–
COc1c2c(cc3c1OCO3)[C@]13C=C[C@H](OC)C[C@H]1N(C2)C[C@H]3OC(=O)c1ccc(Cl)c([N+](=O)[O-])c1 [28t, 11-O-(4-Chloro-3-nitrobenzoyl)ambelline]	96.94	92.83	13.64	17.76	14.19	15.2	15 ± 2	114	92.6	–	7.33	7.613	7.113	activity against P. berghei hepatic stages [2]: not dose-dependent
CC(=O)O[C@@H]1CC=C2CCN3Cc4cc5c(cc4[C@H]1[C@@H]23)OCO5 [compound 5, acetylcaranine]	–	–	–	–	–	–	–	–	–	–	–	–	–	IC50 [3]: 3.5 ± 0.3 µM
COc1c2c(cc3c1OCO3)[C@]13C=C[C@H](OC)C[C@H]1N(C2)C[C@H]3OC(=O)c1ccc([N+](=O)[O-])cc1 [28q, 11-O-(4-Nitrobenzoyl)ambelline]	102	102.2	48.34	59.99	49.2	52.51	53 ± 6	64.6	3.9	1.2 ± 0.18	6.94	4.487	4.835	IC50 [2, 7]: 1.2 µM; IC50 [2, 8]: 1.17 µM; IC50 [2, 9]: 1.03 µM; IC50 [2, 10]: 1.39 µM
